Legend:
[1] = test system: L1210; test: Mitotic index (fraction of cells in mitosis divided by total cells) in cultured lymphoid leukemia L1210 cells; format: functional, Mus musculus
[2] = test system: P388; test: Increase in the life span of mice with P388 leukemia after the administration of the highest non toxic dose (30 mg/kg); format: functional; details: Mus musculus
[3] = test system: L1210; test: Inhibitory activity against lymphoid leukemia L1210 cells; format: functional, cell-based; details: Mus musculus
[4] = test system: P388; test: Increase in the life span of mice with P388 leukemia after the administration of the highest non toxic dose (1 mg/kg); format: functional; details: Mus musculus
[5] = test system: P388; test: Increase in the life span of mice with P388 leukemia after the administration of the highest non toxic dose (2 mg/kg); format: functional, Mus musculus
[6] = test system: P388; test: Increase in the life span of mice with P388 leukemia after the administration of the highest non toxic dose (0.5 mg/kg); format: functional, Mus musculus

Structure (SMILES)	MI0.5 [1] [nM]	ILS at 30 mg/kg [2] [%]	IC50 [3] [nM]	ILS at 1 mg/kg [4] [%]	Increase [5] [%]	Increase [6] [%]
CCOC(=O)Nc1cc2c(c(N)n1)N=C(c1ccccc1)[C@@H](C)N2	27	88	17			
CCOC(=O)Nc1cc2c(c(N)n1)N=C(c1ccccc1)C(C)N2 (configuration not stated)	0.58		0.2	71		
CCOC(=O)Nc1cc2c(c(N)n1)N=C(c1ccccc1)CN2	2.8		4.7		51	
CCOC(=O)Nc1cc2c(c(N)n1)N=C(c1ccccc1)[C@H](C)N2 [MIVOBULIN]	0.14		0.094			64

— ChEMBL document CHEMBL1124583, “New anticancer agents: chiral isomers of ethyl 5-amino-1,2-dihydro-2-methyl-3-phenylpyrido[3,4-b]pyrazine-7-car bamate ” (J Med Chem, 1989)
